Here are results for 8 compounds from ChEMBL document CHEMBL4819049, “Estrogenic activity of ethyl gallate and its potential use in hormone replacement therapy” (Bioorg Med Chem Lett, 2021).

Calls of active or inactive are those of the source. The calls are words filed in the database; no cut-off is given here.

For series [1], the system named is MCF7. Description: Cytotoxicity against human ER-positive MCF7 cells assessed as increase in cell proliferation at 12.5 to 100 uM incubated for 24 hrs. Type of series: cell-based. The note with it: mcf7, 24 h, dose 12.5-100 µM.
Series [2] concerns MCF7. Description: Estrogenic activity at human ER-positive MCF7 cells assessed as increase in cell proliferation at 50 uM incubated for 144 hrs by Soto's E-screen assay. The format is functional, cell-based.
The test system of series [3] is MCF7. Description: Cytotoxicity against human ER-positive MCF7 cells assessed as reduction in cell proliferation at 50 uM incubated for 144 hrs by Soto's E-screen assay. Type of series: cell-based. The note with it: mcf7, 144 h.
Series [4] relates to Rattus norvegicus. Description: Estrogenic activity in immature rat model assessed as uterine weight at 10 ug/kg, sc (reference value: 37.67 mg). The format is functional. The note with it: dose 10 µg/kg.
The test system of series [5] is MCF7. Description: Cytotoxicity against human ER-positive MCF7 cells assessed as cell proliferation at 50 uM incubated for 144 hrs by Soto's E-screen assay relative to control. Type of series: cell-based. To be noted: mcf7, 144 h.
Series [6] concerns MCF7. As to the kind of experiment: Cytotoxicity against human ER-positive MCF7 cells assessed as decrease in cell proliferation at 12.5 to 100 uM incubated for 24 hrs. The note with it: for IC50: MCF7, 24 h; for inhibition: dose 12.5-100 µM. The format is functional, cell-based.
The test system of series [7] is MCF7. Description: Estrogenic activity at human ER-positive MCF7 cells assessed as cell proliferation at 50 uM incubated for 144 hrs by Soto's E-screen assay relative to control. The note with it: read-out: Activity. Type of series: functional.
Series [8] deals with MCF7. As to the kind of experiment: Estrogenic activity at human ER-positive MCF7 cells assessed as increase in cell proliferation at 50 uM incubated for 144 hrs in presence of ER antagonist, ICI182780 by Soto's E-screen assay. Type of series: functional, cell-based.
For series [9], the system named is Rattus norvegicus. As to the kind of experiment: Estrogenic activity in immature rat model assessed as uterine weight at 100 mg/kg, sc administered once daily for 3 days (reference value: 37.67 mg). The format is functional. The note with it: dose 100 mg/kg/day; time 3 day.
In series [10] the target is T1, Estrogen receptor (Homo sapiens) (UniProt P03372).
T1 sequence (whole entry): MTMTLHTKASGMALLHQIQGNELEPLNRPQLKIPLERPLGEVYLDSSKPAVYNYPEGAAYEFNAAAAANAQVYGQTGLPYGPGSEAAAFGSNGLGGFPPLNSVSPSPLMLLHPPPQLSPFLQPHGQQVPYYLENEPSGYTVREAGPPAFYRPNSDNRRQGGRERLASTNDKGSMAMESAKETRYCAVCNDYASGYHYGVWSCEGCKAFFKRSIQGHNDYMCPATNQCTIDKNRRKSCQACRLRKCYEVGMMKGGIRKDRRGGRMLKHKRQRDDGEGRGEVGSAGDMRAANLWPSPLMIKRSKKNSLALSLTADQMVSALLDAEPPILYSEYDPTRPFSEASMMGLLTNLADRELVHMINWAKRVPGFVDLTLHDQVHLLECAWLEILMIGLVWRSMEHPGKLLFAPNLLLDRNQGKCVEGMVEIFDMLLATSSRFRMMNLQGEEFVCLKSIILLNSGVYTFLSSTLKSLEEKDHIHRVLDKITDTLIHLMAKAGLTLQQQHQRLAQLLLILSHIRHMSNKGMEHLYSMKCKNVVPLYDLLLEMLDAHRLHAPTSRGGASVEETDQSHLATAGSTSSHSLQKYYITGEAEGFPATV
Description: Agonist activity at ER in human MCF7 cells assessed as increase in receptor gene activity by luciferase reporter gene assay. The format is cell-based. To be noted: filed as agonist, dose 12.5-100 µM. In general terms: In a reporter assay the amount or activity of a reporter protein is the signal.

In series [11] the target is T1, Estrogen receptor (Homo sapiens). Description: Agonist activity at ER in human MCF7 cells assessed as increase in receptor gene activity at 12.5 to 100 uM in presence of ER antagonist, ICI182780 by luciferase reporter gene assay. Type of series: cell-based. The note with it: dose 12.5-100 µM.
Series [12] has the same target. As to the kind of experiment: Agonist activity at ER in human MCF7 cells assessed as increase in receptor gene activity at 12.5 to 100 uM in presence of ER agonist, 17-beta-estradiol by luciferase reporter gene assay relative to control. The format is cell-based. The note with it: dose 12.5-100 µM.
The test system of series [13] is MCF7. Description: Estrogenic activity at human ER-positive MCF7 cells assessed as increase in cell proliferation incubated for 144 hrs by Soto's E-screen assay. The note with it: dose 25-100 µM. The format is functional, cell-based.
Series [14] has as its system MCF7. As to the kind of experiment: Estrogenic activity at human ER-positive MCF7 cells assessed as increase in cell proliferation at 12.5 to 100 uM incubated for 144 hrs in presence of ER antagonist, ICI182780 by Soto's E-screen assay. To be noted: dose 12.5-100 µM. Type of series: functional, cell-based.

With `C[C@@]12C[C@@]3(O)O[C@@H](O1)[C@]1(COC(=O)c4ccccc4)[C@H]3C[C@@]12O[C@@H]1O[C@H](COC(=O)c2ccccc2)[C@@H](O)[C@H](O)[C@H]1O`, the Activity entry in the series with MCF7 [1] and with MCF7 [3] was “Non-Toxic” throughout. In addition, in the series with MCF7 [2], the outcome was inactive.
Take `C[C@@]12C[C@@]3(O)O[C@@H](O1)[C@]1(COC(=O)c4ccc(O)cc4)[C@H]3C[C@@]12O[C@@H]1O[C@H](CO)[C@@H](O)[C@H](O)[C@H]1O`: the Activity result with MCF7 [1] and in the series on MCF7 [3] was “Non-Toxic” each time. The result with MCF7 [2] was inactive.
Take `C[C@@]12C[C@@]3(O)O[C@@H](O1)[C@]1(COC(=O)c4ccccc4)[C@H]3C[C@@]12O[C@@H]1O[C@H](CO)[C@@H](O)[C@H](O)[C@H]1O` [PAEONIFLORIN]: the Activity result with MCF7 [1] and in the series with MCF7 [3] was “Non-Toxic” in each case. The result in the series on MCF7 [2] was inactive.
In the case of `C[C@]12CC[C@@H]3c4ccc(O)cc4CC[C@H]3[C@@H]1CC[C@@H]2O` [ESTRADIOL], the Activity in the series with Rattus norvegicus [4] is on record as 51 mg.
Broadly, the IC50 is the midpoint of a concentration-inhibition curve. `O=C(O)c1cc(O)c(O)c(O)c1` [GALLIC ACID]: the Activity entry with MCF7 [1] is “Non-Toxic”; in the series with MCF7 [5] it was 15.8%. Also, in the series with MCF7 [6], the IC50 stood at 17.4 µM. The inhibition entry in the series on MCF7 [6] is “Dose-Dependent Effect”.
Consider `O=C(O)c1ccccc1` [BENZOIC ACID], for which the Activity result in the series with MCF7 [1] and in the series on MCF7 [3] was “Non-Toxic” in each case. Also, the outcome with MCF7 [2] was inactive.
Turning to `COc1ccc(C(C)=O)c(O)c1` [PAEONOL], the Activity entry in the series with MCF7 [1] and in the series with MCF7 [3] was “Non-Toxic” throughout. Also, the outcome in the series with MCF7 [2] was inactive.
In the case of `CCOC(=O)c1cc(O)c(O)c(O)c1` [ETHYLGALLATE], the growth at 50 µM with MCF7 [7] was found to be 131%. Further, the result (in the series with MCF7 [8]; in [11]; with MCF7 [14]) was inactive. For the same compound, the Activity was 43.67 mg with Rattus norvegicus [9], “Non-Toxic” in the series on MCF7 [1], “Dose-Dependent Effect” in series [10] and “Dose-Dependent Effect” with MCF7 [13]. For the same compound, the fold change (FC) in series [12] is above 2. The IC50 in the series on MCF7 [6] came to 62.5 µM. Also, in the series on MCF7 [6], the inhibition entry was “Dose-Dependent Effect”.
